US20240090503A1, “FUNGICIDAL OXADIAZOLES AND THEIR MIXTURES” (FMC CORPORATION, priority 2020, published 2024)
Marks after values point to notes of the source that are not given here.

Columns and labels:
Format in all cases: in vivo
[1] = test system: Phakopsora pachyrhizi (the causal agent of Asian soybean rust); test: Test A: preventive spray on soybean seedlings, Asian soybean rust, visual disease rating; conditions: soybean seedlings; for pest or weed control at 50 µg/mL: test suspension 50 ppm
Method in brief: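 Compound in acetone/water (50/50) with 250 ppm PEG400 sprayed to run-off on soybean seedlings; inoculated next day with Phakopsora pachyrhizi spores. Held 24 h at 22° C in saturated atmosphere, then 8 days in a 22° C growth chamber before visual rating as % disease control relative to controls.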

[2] = test system: Zymoseptoria tritici (the causal agent of wheat leaf blotch); test: Test B: preventive spray on wheat seedlings, wheat leaf blotch, visual disease rating; conditions: test suspension 250 ppm, wheat seedlings; for pest or weed control at 250 µg/mL: Zymoseptoria tritici, 456 h
Method in brief: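 This is a preventive test: spray application preceded Zymoseptoria tritici spore inoculation by one day. Test suspensions were in acetone/water with 250 ppm PEG400 surfactant, at the listed ppm rate. After 48 h saturated humidity at 24° C and 17 days at 20° C, visual ratings scored control from 0 to 100%.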

[3] = test system: Puccinia recondita f. sp. tritici (the causal agent of wheat leaf rust); test: Test C: preventive spray on wheat seedlings, wheat leaf rust, visual disease rating; conditions: wheat seedlings; for pest or weed control at 50 µg/mL: test suspension 50 ppm
Method in brief: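 Wheat seedlings sprayed to run-off with compound in acetone/water (50/50) with 250 ppm PEG400, then inoculated with spores the following day. After 24 h saturated humidity at 20° C. and 6 days in growth chamber at 20° C., disease rated visually as % control relative to untreated controls.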

[4] = test suspension 10 ppm, 100 = 100% disease control, 0 = no control

SMILES	Test A disease control rating [1, 4]	Test B disease control rating [2]	Test C disease control rating ([3]; test suspension 10 ppm)	further results
COCCNC(=O)c1cnn(COc2ccc(-c3noc(C(F)(F)F)n3)cc2)c1 [compound 213]	100%	82* %	74%	
N#CCNC(=O)c1cnn(COc2ccc(-c3noc(C(F)(F)F)n3)cc2)c1 [compound 214]	100%	73* %	74%	
O=C(NCCn1cccn1)c1cnn(COc2ccc(-c3noc(C(F)(F)F)n3)cc2)c1 [compound 215]	99%	90* %	74%	
O=C(OCC1CC1)c1cnn(COc2ccc(-c3noc(C(F)(F)F)n3)cc2)c1 [compound 216]	100%	9* %	74%	
CCCOC(=O)c1cnn(COc2ccc(-c3noc(C(F)(F)F)n3)cc2)c1 [compound 217]	100%	35* %	86%	
CN(C)C(=O)C1=NOC(CCOc2cccc(-c3noc(C(F)(F)F)n3)c2)C1 (stereo not drawn) [compound 224]				pest or weed control at 50 µg/mL ([1]; Phakopsora pachyrhizi, 216 h): 100%; pest or weed control at 250 µg/mL [2]: 81%; pest or weed control at 50 µg/mL ([3]; Puccinia recondita, 168 h): 89%
O=C(NCC1CC1(F)F)c1coc(Cc2ccc(-c3noc(C(F)(F)F)n3)cc2)n1 (stereo not drawn) [compound 226]	100%	94* %	100%	
O=C(c1coc(Cc2ccc(-c3noc(C(F)(F)F)n3)cc2)n1)N1CCCC1 [compound 227]	100%	99* %	97%	
O=C(c1coc(Cc2ccc(-c3noc(C(F)(F)F)n3)cc2)n1)N1CCC(F)(F)CC1 [compound 228]	100%	99* %	79%	
CC(C)(C#N)NC(=O)c1coc(Cc2ccc(-c3noc(C(F)(F)F)n3)cc2)n1 [compound 230]	100%	99* %	99%	
N#CC1(NC(=O)c2coc(Cc3ccc(-c4noc(C(F)(F)F)n4)cc3)n2)CC1 [compound 231]	100%	95* %	97%	
O=c1cc(-c2noc(C(F)(F)F)n2)ccn1Cc1ccccc1F [compound 232]				pest or weed control at 250 µg/mL ([1]; Phakopsora pachyrhizi, 216 h, test suspension 250 ppm): 100%; pest or weed control at 250 µg/mL [2]: 68%; pest or weed control at 250 µg/mL ([3]; Puccinia recondita, 168 h, test suspension 250 ppm): 100%
COc1cccc(Cn2ccc(-c3noc(C(F)(F)F)n3)cc2=O)c1 [compound 233]				pest or weed control at 50 µg/mL ([1]; Phakopsora pachyrhizi, 216 h): 97%; pest or weed control at 250 µg/mL [2]: 90%; pest or weed control at 50 µg/mL ([3]; Puccinia recondita, 168 h): 100%
CCOC(=O)c1cnn(Cn2ccc(-c3noc(C(F)(F)F)n3)cc2=O)c1 [compound 234]	100%	87* %	88%	
CCc1nn(Cc2ccc(-c3noc(C(F)(F)F)n3)cc2)c(=O)n1C [compound 235]		87%		Test A disease control rating ([1]; test suspension 250 ppm): 100%; Test C disease control rating ([3]; test suspension 250 ppm): 100%
Cn1c(C2CC2)nn(Cc2ccc(-c3noc(C(F)(F)F)n3)cc2)c1=O [compound 236]		83%		Test A disease control rating ([1]; test suspension 250 ppm): 100%; Test C disease control rating ([3]; test suspension 250 ppm): 100%
CC(C)c1nn(Cc2ccc(-c3noc(C(F)(F)F)n3)cc2)c(=O)n1C [compound 237]		94%		Test A disease control rating ([1]; test suspension 250 ppm): 100%; Test C disease control rating ([3]; test suspension 250 ppm): 100%
CCCc1nn(Cc2ccc(-c3noc(C(F)(F)F)n3)cc2)c(=O)n1C [compound 238]		87%		Test A disease control rating ([1]; test suspension 250 ppm): 100%; Test C disease control rating ([3]; test suspension 250 ppm): 100%

SMILES	Test A disease control rating [1, 4]	Test B disease control rating [2]	Test C disease control rating ([3]; test suspension 10 ppm)	further results
Cn1c(C(F)(F)F)nn(CCc2ccc(-c3noc(C(F)(F)F)n3)cc2)c1=O [compound 239]		0%		Test A disease control rating ([1]; test suspension 250 ppm): 100%; Test C disease control rating ([3]; test suspension 250 ppm): 100%
Cn1c(C(F)(F)F)nn(CCCc2ccc(-c3noc(C(F)(F)F)n3)cc2)c1=O [compound 240]		4%		Test A disease control rating ([1]; test suspension 250 ppm): 100%; Test C disease control rating ([3]; test suspension 250 ppm): 100%
CCOC(=O)c1coc(Cc2ccc(-c3noc(C(F)(F)F)n3)cc2)n1 [compound 252]	100%	92* %	84%	
O=C(O)c1coc(Cc2ccc(-c3noc(C(F)(F)F)n3)cc2)n1 [compound 253]	98%	46* %	74%	
NC(=O)c1coc(Cc2ccc(-c3noc(C(F)(F)F)n3)cc2)n1 [compound 254]	100%	70* %	100%	
N#Cc1coc(Cc2ccc(-c3noc(C(F)(F)F)n3)cc2)n1 [compound 256]	100%	98* %	99%	
N#CCNC(=O)c1coc(Cc2ccc(-c3noc(C(F)(F)F)n3)cc2)n1 [compound 258]	100%	99* %	99%	
CC(C)NC(=O)c1coc(Cc2ccc(-c3noc(C(F)(F)F)n3)cc2)n1 [compound 259]	100%	99* %	99%	
O=C(NC1CC1)c1coc(Cc2ccc(-c3noc(C(F)(F)F)n3)cc2)n1 [compound 260]	100%	47* %	100%	
O=C(c1coc(Cc2ccc(-c3noc(C(F)(F)F)n3)cc2)n1)N1CCC1 [compound 261]	100%	88* %	99%	
CCN(CC)C(=O)c1coc(Cc2ccc(-c3noc(C(F)(F)F)n3)cc2)n1 [compound 262]	100%	96* %	98%	
Cn1ccc(CNC(=O)c2coc(Cc3ccc(-c4noc(C(F)(F)F)n4)cc3)n2)n1 [compound 265]	100%	93* %	100%	
CCOC(=O)c1cnn(Cc2cccc(-c3noc(C(F)(F)F)n3)c2)c1 [compound 276]				pest or weed control at 50 µg/mL ([1]; Phakopsora pachyrhizi, 216 h): 100%; pest or weed control at 250 µg/mL [2]: 35%; pest or weed control at 50 µg/mL ([3]; Puccinia recondita, 168 h): 80%
O=C(NCc1nccs1)c1coc(Cc2ccc(-c3noc(C(F)(F)F)n3)cc2)n1 [compound 277]	100%	99* %	100%	
COC(CNC(=O)c1coc(Cc2ccc(-c3noc(C(F)(F)F)n3)cc2)n1)OC [compound 278]	100%	98* %	100%	
COCC(COC)NC(=O)c1coc(Cc2ccc(-c3noc(C(F)(F)F)n3)cc2)n1 [compound 279]	100%	94* %	100%	
CCNC(=O)c1coc(Cc2ccc(-c3noc(C(F)(F)F)n3)cc2)n1 [compound 280]	100%	99* %	99%	
O=C(NCC(F)(F)F)c1ccc(Cc2ccc(-c3noc(C(F)(F)F)n3)cc2)cc1 [compound 281]	100%	34* %	95%	
